Experimental data published in patent publication US20160002247A1, “8-SUBSTITUTED IMIDAZOPYRIMIDINONE DERIVATIVE HAVING AUTOTAXIN INHIBITORY ACTIVITY” (THE UNIVERSITY OF TOKYO, priority 2013, published 2016).
Like-named read-outs stand apart in the source and are kept apart here.

Target: T1, Human autotaxin enzyme (Homo sapiens, UniProt Q13822)
T1 construct: purchased R&D System
Assay: Evaluation of autotaxin inhibitor, Method B (Test Example 2): TG-mTMP fluorescence
Type: biochemical
Procedure, shortened: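 Human autotaxin in Tris-HCl pH 7.5 buffer with NaCl, MgCl2 and 0.1% BSA was reacted with TG-mTMP (0.5 μM solution added) and test compound for 2 hours at room temperature.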

[1] = Assay Method B (Test Example 2), human autotaxin, read-out: Inhibitory Activity (autotaxin enzyme inhibitory activity, IC50 class)
[2] = Assay Method: Method B (Test Example 2), read-out: Inhibitory Activity (Enzyme Inhibitory Activity, IC50)

Compound	IC50 [1]	IC50 [2]
Cc1cc(=O)n2cc(-c3ccc(Cl)cc3)nc2n1Cc1cccc(OCC(=O)O)c1 [Compound 96]	100 to 1000 nM	–
CCCCCn1c(C)cc(=O)n2cc(-c3ccc(OC(F)(F)F)cc3)nc12 [Compound 156]	< 10 nM	–
CCCCCn1c(-c2cc3ccccc3o2)cc(=O)n2cc(-c3ccc(Cl)cc3)nc12 [Compound 392]	100 to 1000 nM	–
Cc1cc(=O)n2cc(-c3ccc(Cl)cc3)nc2n1CCC(F)=C(F)F [Compound 55]	–	10 to 100 nM
CCCCCn1c(C)c(CCC(=O)OCC)c(=O)n2cc(-c3cccc(Cl)c3)nc12 [Compound 210]	100 to 1000 nM	–
CCCCCOC(=O)CCc1c(C)n(CCCCC)c2nc(-c3ccc(Cl)cc3)cn2c1=O [Compound 201]	< 10 nM	–
CCCCCn1c(NCCN2CCN(C)CC2)cc(=O)n2cc(-c3ccc(Cl)cc3)nc12 [Compound 227]	< 10 nM	–
CCCC(C)n1c(C)cc(=O)n2cc(-c3ccc(Cl)cc3)nc12 (centres unmarked) [Compound 56]	–	10 to 100 nM
CCCCCn1c(C)cc(=O)n2cc(-c3ccc4c(c3)OCCCO4)nc12 [Compound 160]	100 to 1000 nM	–
CCCCCn1c(Oc2ccc(-c3ccccc3)cc2)cc(=O)n2cc(-c3ccc(Cl)cc3)nc12 [Compound 265]	> 1000 nM	–
Cc1cc(=O)n2cc(-c3ccc(Cl)cc3)nc2n1CC1CCCO1 (centres unmarked) [Compound 107]	100 to 1000 nM	–
CCCCCn1c(NCCN2CCOCC2)cc(=O)n2cc(-c3ccc(Cl)cc3)nc12 [Compound 238]	< 10 nM	–
N#CCCCCn1c(-c2ccc(C(=O)NCCN3CCOCC3)cc2)cc(=O)n2cc(-c3ccc(C#N)cc3)nc12 [Compound 386]	< 10 nM	–
CCCCCn1c(OCCC)cc(=O)n2cc(-c3ccc(Cl)cc3)nc12 [Compound 189]	10 to 100 nM	–
Cc1cc(=O)n2cc(-c3ccc(Cl)cc3)nc2n1Cc1ccc(C(C)(C)C)cc1 [Compound 123]	100 to 1000 nM	–
Cc1cc(=O)n2cc(-c3ccc(Cl)cc3)nc2n1Cc1ccc(OC(F)(F)F)cc1 [Compound 122]	100 to 1000 nM	–
CCCCCn1c(N2CCC[C@H]2C)cc(=O)n2cc(-c3ccc(Cl)cc3)nc12 [Compound 256]	< 10 nM	–
Cc1cc(=O)n2cc(-c3ccc(Cl)cc3)nc2n1Cc1ccc(C(=O)O)cc1 [Compound 99]	100 to 1000 nM	–
CCCCCn1c(-c2ccc(N3CCOCC3)cc2)cc(=O)n2cc(-c3ccc(Cl)cc3)nc12 [Compound 421]	10 to 100 nM	–
CCCCCn1c(-c2cscn2)cc(=O)n2cc(-c3ccc(Cl)cc3)nc12 [Compound 418]	10 to 100 nM	–
CCCCCn1c(/C=C/C(C)(C)C)cc(=O)n2cc(-c3ccc(Cl)cc3)nc12 [Compound 415]	10 to 100 nM	–
CCCCCn1c(Oc2cccnc2)cc(=O)n2cc(-c3ccc(Cl)cc3)nc12 [Compound 264]	100 to 1000 nM	–
Cc1cc(=O)n2cc(-c3ccc(Cl)cc3)nc2n1Cc1cccc(C(F)(F)F)c1 [Compound 115]	10 to 100 nM	–
Cc1cc(=O)n2cc(-c3ccc(Cl)cc3)nc2n1CC1CCCC1 [Compound 57]	–	10 to 100 nM
CCCCCn1c(N2CCCC2C(C)CCC)cc(=O)n2cc(-c3ccc(Cl)cc3)nc12 (centres unmarked) [Compound 280]	10 to 100 nM	–

Compound	IC50 [1]	IC50 [2]
CCCCCn1c(C)cc(=O)n2cc(-c3ccc(C#N)cc3)nc12 [Compound 157]	< 10 nM	–
CCCCCn1c(C)c(C#CCO)c(=O)n2cc(-c3ccc(Cl)cc3)nc12 [Compound 183]	10 to 100 nM	–
Cc1cc(=O)n2cc(-c3ccc(Cl)cc3)nc2n1Cc1ccc(OCCCN(C)C)cc1 [Compound 89]	< 10 nM	–
CCCCCn1c(C)cc(=O)n2cc(-c3ccc(C)cc3C)nc12 [Compound 154]	10 to 100 nM	–
CCCCCn1c(-c2ccoc2)cc(=O)n2cc(-c3ccc(Cl)cc3)nc12 [Compound 403]	10 to 100 nM	–
CCCCCn1c(OC(C)c2ccccc2)cc(=O)n2cc(-c3ccc(Cl)cc3)nc12 (centres unmarked) [Compound 261]	100 to 1000 nM	–
CCCCCn1c(C)cc(=O)n2cc(-c3cccc(Cl)c3)nc12 [Compound 147]	> 1000 nM	–
CCCCCn1c(N2CCNCC2)cc(=O)n2cc(-c3ccc(Cl)cc3)nc12 [Compound 254]	< 10 nM	–
Cc1cc(=O)n2cc(-c3ccc(Cl)cc3)nc2n1Cc1ccc(C(=O)c2ccccc2)cc1 [Compound 111]	100 to 1000 nM	–
CCCCCn1c(C2=CCCCC2)cc(=O)n2cc(-c3ccc(Cl)cc3)nc12 [Compound 408]	10 to 100 nM	–
Cc1cc(=O)n2cc(-c3ccc(Cl)cc3)nc2n1C1CCC1 [Compound 83]	–	10 to 100 nM
CCCCCn1c(N2CCN(c3cc(F)cc(F)c3)CC2)cc(=O)n2cc(-c3ccc(Cl)cc3)nc12 [Compound 245]	10 to 100 nM	–
Cc1cc(=O)n2cc(-c3ccc(Cl)cc3)nc2n1CCCCCO [Compound 45]	–	100 to 1000 nM
N#CCCCCn1c(-c2ccc(C(N)=O)cc2)cc(=O)n2cc(-c3ccc(Cl)cc3)nc12 [Compound 379]	< 10 nM	–
Cc1cc(=O)n2cc(-c3ccc(Cl)cc3)nc2n1CC(=O)OC(C)C [Compound 72]	–	10 to 100 nM
CCCCCn1c(-c2ccncc2)cc(=O)n2cc(-c3ccc(Cl)cc3)nc12 [Compound 410]	< 10 nM	–
CCCCCn1c(N2CCC[C@@H]2C)cc(=O)n2cc(-c3ccc(Cl)cc3)nc12 [Compound 258]	10 to 100 nM	–
Cc1cc(=O)n2cc(-c3ccc(Cl)cc3)nc2n1Cc1cccnc1 [Compound 117]	10 to 100 nM	–
Cc1cc(=O)n2cc(-c3ccc(Cl)cc3)nc2n1CC(=O)NC(C)C [Compound 68]	–	> 1000 nM
Cc1ccccc1Cn1c(C)cc(=O)n2cc(-c3ccc(Cl)cc3)nc12 [Compound 64]	–	100 to 1000 nM
CCCC(Cn1c(C)cc(=O)n2cc(-c3ccc(Cl)cc3)nc12)OS(C)(=O)=O (centres unmarked) [Compound 84]	–	< 10 nM
CCCc1cn2c(=O)ccn(CCc3ccc(Cl)cc3)c2n1 [Compound 128]	> 1000 nM	–
CCCCCn1c(C)cc(=O)n2cc(-c3ccsc3)nc12 [Compound 144]	100 to 1000 nM	–
CCC(C)Cn1c(C)cc(=O)n2cc(-c3ccc(Cl)cc3)nc12 (centres unmarked) [Compound 71]	–	10 to 100 nM
CCCCCn1c(OC(CC(C)C)CC(C)C)cc(=O)n2cc(-c3ccc(Cl)cc3)nc12 [Compound 262]	100 to 1000 nM	–

Compound	IC50 [1]	IC50 [2]
CCCCCn1c(NC2CCCC2)cc(=O)n2cc(-c3ccc(Cl)cc3)nc12 [Compound 224]	10 to 100 nM	–
Cc1cc(=O)n2cc(-c3ccc(Cl)cc3)nc2n1Cc1ccccc1F [Compound 53]	–	10 to 100 nM
COC(=O)c1ccc(Cn2c(C)cc(=O)n3cc(-c4ccc(Cl)cc4)nc23)cc1 [Compound 103]	10 to 100 nM	–
CCCCCn1c(N2CCCC2C)cc(=O)n2cc(-c3ccc(Cl)cc3)nc12 (centres unmarked) [Compound 259]	10 to 100 nM	–
CCN(CC)C(=O)Cn1c(C)cc(=O)n2cc(-c3ccc(Cl)cc3)nc12 [Compound 62]	–	100 to 1000 nM
CCCCCn1c(NC)cc(=O)n2cc(-c3ccc(Cl)cc3)nc12 [Compound 248]	10 to 100 nM	–
CCCCCn1c(NCCOC)cc(=O)n2cc(-c3ccc(Cl)cc3)nc12 [Compound 250]	10 to 100 nM	–
CCCCCn1c(C)cc(=O)n2c(C)c(-c3ccc(Br)cc3)nc12 [Compound 169]	10 to 100 nM	–
CCCCCn1c(C)c(CC(=O)O)c(=O)n2cc(-c3ccc(Cl)cc3)nc12 [Compound 179]	10 to 100 nM	–
CCCCCn1c(NCCN(C)C)cc(=O)n2cc(-c3ccc(Cl)cc3)nc12 [Compound 235]	10 to 100 nM	–
CCCCCn1c(C)cc(=O)n2cc(-c3ccc4ccccc4c3)nc12 [Compound 153]	> 1000 nM	–
CCCCCn1c(N2CCCC2CCC2CCCCC2)cc(=O)n2cc(-c3ccc(Cl)cc3)nc12 (centres unmarked) [Compound 279]	10 to 100 nM	–
CCCCCn1c(N2CCN(CCc3ccccc3)CC2)cc(=O)n2cc(-c3ccc(Cl)cc3)nc12 [Compound 223]	10 to 100 nM	–
CCCCCn1c(C)cc(=O)n2c(C=O)c(-c3ccc(Cl)cc3)nc12 [Compound 167, 2-(4-chlorophenyl)-7-methyl-5-oxo-8-pentyl-5,8-dihydroimidazo[1,2-a]pyrimidine-3-carbaldehyde]	100 to 1000 nM	–
Cc1cc(=O)n2cc(-c3ccc(Cl)cc3)nc2n1Cc1ccc(COc2ccccc2)cc1 [Compound 120]	> 1000 nM	–
N#Cc1ccc(-c2cn3c(=O)cc(N4CCC(C(=O)O)CC4)n(CCCC(F)(F)F)c3n2)cc1 [Compound 285]	< 10 nM	–
CCCCCCn1c(C)cc(=O)n2cc(-c3ccc(Cl)cc3)nc12 [Compound 8]	–	10 to 100 nM
Cc1ccc(Cn2c(C)cc(=O)n3cc(-c4ccc(Cl)cc4)nc23)cc1 [Compound 67]	–	10 to 100 nM
CCCCCn1c(-c2ccc(N)cc2)cc(=O)n2cc(-c3ccc(Cl)cc3)nc12 [Compound 422]	10 to 100 nM	–
CCCCCCCCOc1cc(=O)n2cc(-c3ccc(Cl)cc3)nc2n1CCCCC [Compound 263]	100 to 1000 nM	–
CCCCCn1c(C)cc(=O)n2cc(-c3ccc4c(c3)CCO4)nc12 [Compound 149]	100 to 1000 nM	–
Cc1cc(=O)n2cc(-c3ccc(Cl)cc3)nc2n1CC1CCOC1 (centres unmarked) [Compound 118]	100 to 1000 nM	–
CCCCCn1c(C)c(NC(C)=O)c(=O)n2cc(-c3ccc(Cl)cc3)nc12 [Compound 199]	10 to 100 nM	–
CCCCCn1c(C)c(-c2ccccc2)c(=O)n2cc(-c3ccc(Cl)cc3)nc12 [Compound 182]	> 1000 nM	–
